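Protocol summary: plate cells (96-well), add compound at 5 concentrations, incubate 48 h, interpolate endpoints linearly. Abbreviation: GI50, concentration required for 50% inhibition of growth. TGI: total growth inhibition.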
Columns and labels:
Assay in all cases: NCI anticancer screen, dose series, 48 h
[1] = tested on: HCC-2998 colon
[2] = tested on: HOP-62 NSCLC
[3] = tested on: NCI-H23 lung
[4] = tested on: EKVX NSCLC
[5] = tested on: IGROV1 ovarian
[6] = tested on: U251 CNS
[7] = tested on: NCI-H460 lung
[8] = tested on: HCT-15 colon
[9] = tested on: HL-60(TB) leukemia
[10] = tested on: SK-MEL-5 melanoma
[11] = tested on: COLO 205 colon
[12] = tested on: CCRF-CEM leukemia
[13] = tested on: KM12 colon
[14] = tested on: SK-MEL-2 melanoma
[15] = tested on: TK-10 renal
[16] = tested on: LXFL 529 NSCLC
[17] = tested on: SNB-75 CNS
[18] = tested on: OVCAR-4 ovarian
[19] = tested on: NCI-H226 lung
[20] = tested on: DMS 273 small cell lung
[21] = tested on: HCT-116 colon
[22] = tested on: OVCAR-8 ovarian
[23] = tested on: SR leukemia
[24] = tested on: A549 NSCLC
[25] = tested on: ACHN renal
[26] = tested on: MOLT-4 leukemia
[27] = tested on: DLD-1 colon
[28] = tested on: KM20L2 colon
[29] = tested on: UO-31 renal
[30] = tested on: HOP-18 NSCLC
[31] = tested on: RXF-631 renal
[32] = tested on: RXF 393 renal
[33] = tested on: MALME-3M melanoma
[34] = tested on: OVCAR-3 ovarian
[35] = tested on: CAKI-1 renal
[36] = tested on: 786-0 renal
[37] = tested on: SK-OV-3 ovarian
[38] = tested on: DMS 114 small cell lung
[39] = tested on: RPMI-8226 leukemia
[40] = tested on: SN12C renal
[41] = tested on: NCI-H522 lung
[42] = tested on: SW-620 colon
[43] = tested on: SF-268 CNS
[44] = tested on: HT29 colon
[45] = tested on: M19-MEL melanoma
[46] = tested on: K-562 leukemia
[47] = tested on: OVCAR-5 ovarian
[48] = tested on: LOX IMVI melanoma
[49] = tested on: SF-539 CNS
[50] = tested on: UACC-62 melanoma
[51] = tested on: A498 renal
[52] = tested on: UACC-257 melanoma
[53] = tested on: SF-295 CNS
[54] = tested on: HOP-92 NSCLC
[55] = tested on: M14 melanoma
[56] = tested on: SNB-19 CNS
[57] = tested on: SNB-78 CNS
[58] = tested on: SK-MEL-28 melanoma
[59] = tested on: XF 498 CNS

CCOc1ccccc1N=C(NC(=O)CC)SC
GI50 [1]: > 100 µM | TGI [1]: > 100 µM | GI50 [2]: > 100 µM | TGI [2]: > 100 µM | GI50 [3]: > 10 µM | TGI [3]: > 100 µM | GI50 [4]: > 100 µM | TGI [4]: > 100 µM | GI50 [5]: > 100 µM | TGI [5]: > 100 µM | GI50 [6]: > 100 µM | TGI [6]: > 100 µM | GI50 [7]: > 100 µM | TGI [7]: > 100 µM | GI50 [8]: > 10 µM | TGI [8]: > 100 µM | GI50 [9]: > 100 µM | TGI [9]: > 100 µM | TGI [10]: > 10 µM | TGI [11]: > 10 µM | GI50 [12]: > 10 µM | TGI [12]: > 100 µM | GI50 [13]: > 100 µM | TGI [13]: > 100 µM | GI50 [14]: > 10 µM | TGI [14]: > 100 µM | TGI [15]: > 10 µM | GI50 [16]: > 100 µM | TGI [16]: > 100 µM | GI50 [17]: > 10 µM | TGI [17]: > 100 µM | GI50 [18]: > 10 µM | TGI [18]: > 100 µM | GI50 [19]: > 100 µM | TGI [19]: > 100 µM | GI50 [20]: > 100 µM | TGI [20]: > 100 µM | GI50 [21]: > 10 µM | TGI [21]: > 100 µM | GI50 [22]: > 10 µM | TGI [22]: > 100 µM | GI50 [23]: > 100 µM | TGI [23]: > 100 µM | GI50 [24]: > 100 µM | TGI [24]: > 100 µM | GI50 [25]: > 100 µM | TGI [25]: > 100 µM | GI50 [26]: > 10 µM | TGI [26]: > 100 µM | GI50 [27]: > 10 µM | TGI [27]: > 100 µM | GI50 [28]: > 100 µM | TGI [28]: > 100 µM | GI50 [29]: > 100 µM | TGI [29]: > 100 µM | TGI [30]: > 10 µM | GI50 [31]: > 100 µM | TGI [31]: > 100 µM | GI50 [32]: > 100 µM | TGI [32]: > 100 µM | GI50 [33]: > 10 µM | TGI [33]: > 100 µM | GI50 [34]: > 100 µM | TGI [34]: > 100 µM | GI50 [35]: > 100 µM | TGI [35]: > 100 µM | GI50 [36]: > 100 µM | TGI [36]: > 100 µM | TGI [37]: > 10 µM | TGI [38]: > 10 µM | GI50 [39]: > 10 µM | TGI [39]: > 100 µM | GI50 [40]: > 10 µM | TGI [40]: > 100 µM | GI50 [41]: > 100 µM | TGI [41]: > 100 µM | GI50 [42]: > 100 µM | TGI [42]: > 100 µM | GI50 [43]: > 100 µM | TGI [43]: > 100 µM | GI50 [44]: > 100 µM | TGI [44]: > 100 µM | GI50 [45]: > 100 µM | TGI [45]: > 100 µM | GI50 [46]: > 100 µM | TGI [46]: > 100 µM | TGI [47]: > 10 µM | GI50 [48]: > 100 µM | TGI [48]: > 100 µM | GI50 [49]: > 100 µM | TGI [49]: > 100 µM | GI50 [50]: > 100 µM | TGI [50]: > 100 µM | GI50 [51]: > 100 µM | TGI [51]: > 100 µM | GI50 [52]: > 100 µM | TGI [52]: > 100 µM | GI50 [53]: > 100 µM | TGI [53]: > 100 µM | TGI [54]: > 10 µM | GI50 [55]: > 100 µM | TGI [55]: > 100 µM | GI50 [56]: > 100 µM | TGI [56]: > 100 µM | TGI [57]: > 10 µM | GI50 [58]: > 100 µM | TGI [58]: > 100 µM

O=S(O)CCCCSSCCCCS(=O)(O)=S
TGI [1]: > 100 µM | TGI [2]: > 100 µM | TGI [3]: > 100 µM | TGI [4]: 88.6 µM | TGI [5]: > 100 µM | TGI [6]: > 100 µM | TGI [7]: > 100 µM | TGI [8]: > 100 µM | TGI [10]: 30.8 µM | TGI [11]: > 100 µM | TGI [12]: > 100 µM | TGI [13]: > 100 µM | TGI [14]: > 100 µM | TGI [15]: > 100 µM | TGI [16]: 61.2 µM | TGI [17]: 92.1 µM | TGI [18]: 79 µM | TGI [20]: > 100 µM | TGI [21]: > 100 µM | TGI [22]: > 100 µM | TGI [24]: > 100 µM | TGI [25]: > 100 µM | TGI [59]: 33.2 µM | TGI [26]: > 100 µM | TGI [27]: > 100 µM | TGI [28]: > 100 µM | TGI [29]: > 100 µM | TGI [30]: > 100 µM | TGI [31]: > 100 µM | TGI [32]: > 100 µM | TGI [33]: > 100 µM | TGI [34]: > 100 µM | TGI [35]: > 100 µM | TGI [36]: > 100 µM | TGI [37]: > 100 µM | TGI [38]: > 100 µM | TGI [40]: > 100 µM | TGI [41]: 65.6 µM | TGI [42]: > 100 µM | TGI [43]: > 100 µM | TGI [44]: > 100 µM | TGI [45]: > 100 µM | TGI [46]: > 100 µM | TGI [47]: > 100 µM | TGI [48]: > 100 µM | TGI [49]: > 100 µM | TGI [50]: 70.1 µM | TGI [51]: > 100 µM | TGI [52]: > 100 µM | TGI [53]: > 100 µM | TGI [55]: 32.1 µM | TGI [56]: > 100 µM | TGI [57]: > 100 µM | TGI [58]: > 100 µM

From PubChem BioAssay (NCI)
